≈ marks a conversion by molar mass, not a printed value. Read-outs that look alike come from different tables or passages of the source.
Tests used:
[1] = Solubility test in organic solvents (propylene glycol, butylene glycol); assay type: physicochemical; conditions: organic solvent or mixture, thermodynamic from solid, visual observation after 24 hours at room temperature
Procedure: Under room temperature conditions, in a 0.5 mL polypropylene tube, (+)-5-(3,4-difluorophenyl)-5-[(3-methyl-2-oxopyridin-1(2H)-yl)methyl]imidazolidine-2,4-dione and (±)-5-(3,4-difluorophenyl)-5-[(3-methyl-2-oxopyridin-1(2H)-yl)methyl]imidazolidine-2,4-dione measured in advance for a suitable amount were prepared, respectively. In each tube, solvent (Propylene glycol (PG) or butylene glycol (BG)) was added with various amounts, e.g. 10 times, 20 times or 100 times amount of the test compound, and stirred with a vortex mixer. With a table ultrasonic washer set at 37° C., ultrasonication treatment was given for 10 minutes; after warming for an hour in a thermostat chamber, each were kept standing for 24 hours at room temperature. The test solutions were observed by sight to evaluate the states in accordance with the determination criterion given below.
Determination criterion consisted of the following two categories:
“Soluble”: Test compound dissolved; no undissolved substances confirmed by visual observation.
“Insoluble”: Test compound remains undissolved; undissolved substances confirmed by visual observation.

[2] = Solubility test in the 2nd fluid for the disintegration test of the Japanese Pharmacopoeia; assay type: physicochemical; conditions: pH 6.8, aqueous buffer, thermodynamic from solid; pH6.8, shaken for 2 hours
Procedure: Test substances (10.0 mg) were correctly weighed, and methanol was added to adjust to 10 mL. The solution was diluted by 10 times to prepare a solution of […].
In a centrifuge tube 5.0 mg of the test substance was weighed, added with 5.0 mL of the 2nd fluid for the disintegration test of the Japanese pharmacopoeia, supersonified for 3 minutes, and shaken for 2 hours thereafter. This solution was filitered with a membrane filter (0.2 μm), 500 μL the filtrate was measured, 500 μL of acetonitrile was added, and fully stirred to obtain the sample solution.
To 250 mL of 0.2 mol/L potassium dihydrogenphosphate aqueous solution, 118 mL of 0.2 mol/L sodium hydroxide aqueous solution and water was added to adjust to 1000 mL.
Using a high performance liquid chromatography, each of the sample solution for a calibration curve and sample solution for solubility measurement is measured twice to calculate an average area for each.
Based on the average area obtained in the above mentioned method, using an equation below to calculate a solubility. Solubility in the 2nd fluid for the disintegration test of the Japanese pharmacopoeia(μg/mL)=((P×2)/S)×100
S: Average area on the sample solution for a calibration curve
P: Average area on the sample solution for solubility measurement

Compound: Cc1cccn(CC2(c3ccc(F)c(F)c3)NC(=O)NC2=O)c1=O (racemic) [(±)-5-(3,4-difluorophenyl)-5-[(3-methyl-2-oxopyridin-1(2H)-yl)methyl]imidazolidine-2,4-dione]
- solubility at 24 h ([1]; BG, 20 times amount of the test compound, read-out: Solubility in butylene glycol (BG), 20 times amount): < 50 mg/mL
- solubility at 24 h ([1]; BG, 100 times amount of the test compound, read-out: Solubility in butylene glycol (BG), 100 times amount): > 10 mg/mL
- solubility at 24 h ([1]; PG, 10 times amount of the test compound, read-out: Solubility in propylene glycol (PG), 10 times amount): < 50 mg/mL
- solubility at 24 h ([1]; PG, 20 times amount of the test compound, read-out: Solubility in propylene glycol (PG), 20 times amount): < 50 mg/mL
- solubility at 24 h ([1]; PG, 100 times amount of the test compound, read-out: Solubility in propylene glycol (PG), 100 times amount): > 10 mg/mL
- solubility at 2 h [2]: 45 µg/mL (≈ 0.135 mM)

From US9518041B2, “(+)-5-(3,4-difluorophenyl)-5-[(3-methyl-2-oxopyridin-1(2H)-yl)methyl]imidazolidine-2,4-dione and drug containing same” (KAKEN PHARMACEUTICAL CO., LTD., priority 2013, dated 2016)
